Assay results reported in patent publication US12077555B2, “STAT degraders and uses thereof” (Kymera Therapeutics, Inc., priority 2019, dated 2024).

The molecules below were run against STAT3 (Homo sapiens, UniProt P40763) (assay: Quantitation of STAT3 degradation in A549 cells by Western blot). Conditions: 24 hours, tested up to 30 μM or 10 μM, read-out: A549 DC50.
Format: cell-based
Parameters: expressed in transfected cells; host or cells: A549
Method: Degradation of total cellular STAT3 protein in A549 was quantitatively measured using SDS-PAGE and Western blot analysis. A549 cells (5×10^5 cells/well, 2 mL) were seeded into 6-well plates and were incubated in the incubator under 5% CO2 overnight to reach ˜80% confluency. The next day, the culture medium was changed with 1 ml fresh media. Then, 1 mL of media containing 2× compound solution was added into the well to make the final concentration of 30 μM, 10 μM, 3 μM, 1 μM, 0.3 μM and 0 μM (DMSO). The media was thoroughly mixed and incubated for 24 hours at 37° C. under 5% CO2. Then, the culture media was removed from the assay plates and the cells were washed with ice-cold PBS twice. To prepare cell lysates, 200 ul pre-chilled RIPA lysis buffer (Boston BioProducts BP-115D) with protease/phosphatase inhibitor (Roche 05892791001/Roche 04906837001) was added directly into the well to lyse the cells for 20 minutes on ice. The cell lysates were then transferred to centrifuge tubes. Insoluble part of lysates was removed by centrifuging the lysates at 13000 rpm for 20 minutes. The supernatant was then collected and mixed with 5× loading buffer (Beyotime Bio P0015) to make the final samples for SDS-PAGE analysis. The samples were heated at 100° C. for 10 minutes and cool to room temperature before centrifuging at 13000 rpm for 20 minutes. To analyze the samples by SDS-PAGE, 10 ul samples were loaded onto SDS-PAGE gel (Novex, WG1403BOX) and the SDS-PAGE gel was run for 20 minutes at 80 V, then at 120 V for 1.5 hours. The SDS-PAGE gel was then transferred to nitrocellulose membrane using the wet-transfer method at 250 mA for 1.5 hours. The membrane was then blocked with LI-COR blocking buffer (LI-COR, 927-50000) for 1 hour and was probed with primary antibody (mouse anti-STAT3 (124H6) (CST #91395) 1:2000 or mouse anti-beta-Actin (8H10D10) (CST #3700) 1:10000) at 4° C. overnight. The membrane was then washed three times with TBST buffer and probed with secondary antibody (anti-mouse IgG (LI-COR, 926-68070), 1:5000) for 1 hour at room temperature. The membrane was then scanned on a LI-COR Odyssey instrument and was quantified using Image Studio Version 5.2. Concentration at 50% degradation (DC50) was calculated by fitting dose dependent degradation data using a sigmoidal equation using GraphPad Prism Version 8.0.

Chain of STAT3 (P40763 whole entry): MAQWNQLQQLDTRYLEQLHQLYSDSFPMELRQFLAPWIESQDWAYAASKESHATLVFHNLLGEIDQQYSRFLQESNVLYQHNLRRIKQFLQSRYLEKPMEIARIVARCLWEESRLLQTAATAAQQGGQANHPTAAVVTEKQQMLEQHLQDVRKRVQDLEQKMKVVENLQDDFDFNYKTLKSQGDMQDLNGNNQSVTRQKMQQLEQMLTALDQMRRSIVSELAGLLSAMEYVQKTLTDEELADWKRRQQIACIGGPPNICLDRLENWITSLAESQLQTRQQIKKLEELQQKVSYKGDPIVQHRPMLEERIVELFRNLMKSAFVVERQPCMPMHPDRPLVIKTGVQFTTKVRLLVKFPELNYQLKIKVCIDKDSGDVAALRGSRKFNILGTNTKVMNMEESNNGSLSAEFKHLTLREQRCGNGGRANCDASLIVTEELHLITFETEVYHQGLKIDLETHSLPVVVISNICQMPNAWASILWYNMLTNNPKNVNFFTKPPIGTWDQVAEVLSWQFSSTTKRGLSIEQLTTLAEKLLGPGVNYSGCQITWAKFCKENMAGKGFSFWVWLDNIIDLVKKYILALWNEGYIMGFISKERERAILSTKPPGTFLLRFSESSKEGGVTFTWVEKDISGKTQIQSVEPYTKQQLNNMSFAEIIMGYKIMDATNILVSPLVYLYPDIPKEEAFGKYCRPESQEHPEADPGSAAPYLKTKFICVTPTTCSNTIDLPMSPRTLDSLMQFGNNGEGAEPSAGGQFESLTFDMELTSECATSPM

`C/C(=C\C(=O)N[C@H]1CCc2cccc3c2N(C1=O)[C@H](C(=O)N[C@@H](CCC(N)=O)[C@@H](C)OCc1ccc(CCCCC(=O)N[C@H](C(=O)N2C[C@H](O)C[C@H]2C(=O)NCc2ccc(-c4scnc4C)cc2)C(C)(C)C)cc1)C3)c1ccc(CP(=O)(O)O)cc1` [Compound I-80, diammonium [4-[(1E)-1-[[(2S,11S)-2-[[(3S,4R)-1-carbamoyl-4-[[4-(4-[[(2S)-1-[(2S,4R)-4-hydroxy-2-([[4-(4-methyl-1,3-thiazol-5-yl)phenyl]methyl]carbamoyl)pyrrolidin-1-yl]-3,3-dimethyl-1-oxobutan-2-yl]carbamoyl]butyl)phenyl]methoxy]pentan-3-yl]carbamoyl]-12-oxo-1-azatricyclo[6.4.1.0^[4,13]]trideca-4(13),5,7-trien-11-yl]carbamoyl]prop-1-en-2-yl]phenyl]methylphosphonate] and `Cc1ncsc1-c1ccc(CNC(=O)[C@@H]2C[C@@H](O)CN2C(=O)[C@@H](NC(=O)CCCCc2ccc(CO[C@H](C)[C@H](CCC(N)=O)NC(=O)[C@@H]3Cc4cccc5c4N3C(=O)[C@@H](NC(=O)c3cc4cc(CP(=O)(O)O)ccc4[nH]3)CC5)cc2)C(C)(C)C)cc1` [Compound I-82, diammonium (2-[[(2S,11S)-2-[[(3S,4R)-1-carbamoyl-4-[[4-(4-[[(2S)-1-[(2S,4R)-4-hydroxy-2-([[4-(4-methyl-1,3-thiazol-5-yl)phenyl]methyl]carbamoyl)pyrrolidin-1-yl]-3,3-dimethyl-1-oxobutan-2-yl]carbamoyl]butyl)phenyl]methxy]opentan-3-yl]carbamoyl]-12-oxo-1-azatricyclo[6.4.1.0^[4,13]]trideca-4(13),5,7-trien-11-yl]carbamoyl]-1H-indo1-5-yl)methylphosphonate] cannot be ordered by DC50: over 30 µM for the first, over 30 µM for the second.

Same assay, conditions: read-out: A549 DC50, 24 hours, tested up to 30 μM or 10 μM

`CCCC[C@H](NC(=O)/C=C(\C)c1ccc(C(F)(F)P(=O)(OCOC(=O)C(C)(C)C)OCOC(=O)C(C)(C)C)cc1)C(=O)N1C[C@H]2C[C@H]2[C@H]1C(=O)N[C@@H](CCC(N)=O)[C@@H](C)OCc1ccc(CCCNC(=O)COCCOCCCc2ccc3c(c2)n(C)c(=O)n3C2CCC(=O)NC2=O)cc1` (stereo partly drawn) [Compound I-58, [([4-[(1E)-1-[[(2S)-1-[(1R,2S,5S)-2-[[(3S,4R)-1-carbamoyl-4-[(4-[3-[2-(2-[3-[1-(2,6-dioxopiperidin-3-yl)-3-methyl-2-oxo-1,3-benzodiazol-5-yl]propoxy]ethoxy)acetamido]propyl]phenyl)methoxy]pentan-3-yl]carbamoyl]-3-azabicyclo[3.1.0]hexan-3-yl]-1-oxohexan-2-yl]carbamoyl]prop-1-en-2-yl]phenyl]difluoromethyl([(2,2-dimethylpropanoyl)oxy]methoxy)phosphoryl)oxy]methyl 2,2-dimethylpropanoate] and `CCCC[C@H](NC(=O)/C=C(\C)c1ccc(C(F)(F)P(=O)(OCOC(=O)C(C)(C)C)OCOC(=O)C(C)(C)C)cc1)C(=O)N1C[C@H]2C[C@H]2[C@H]1C(=O)N[C@@H](CCC(N)=O)[C@@H](C)OCc1ccc(CCCNC(=O)COCCOCCOCCCc2ccc3c(c2)n(C)c(=O)n3C2CCC(=O)NC2=O)cc1` (stereo partly drawn) [Compound I-59, [([4-[(1E)-1-[[(2S)-1-[(1R,2S,5S)-2-[[(3S,4R)-1-carbamoyl-4-[[4-(3-[2-[2-(2-[3-[1-(2,6-dioxopiperidin-3-yl)-3-methyl-2-oxo-1,3-benzodiazol-5-yl]propoxy]ethoxy)ethoxy]acetamido]propyl)phenyl]methoxy]pentan-3-yl]carbamoyl]-3-azabicyclo[3.1.0]hexan-3-yl]-1-oxohexan-2-yl]carbamoyl]prop-1-en-2-yl]phenyl]difluoromethyl([(2,2-dimethylpropanoyl)oxy]methoxy)phosphoryl)oxy]methyl 2,2-dimethylpropanoate] cannot be ordered by DC50: over 30 µM for the first, over 30 µM for the second.

`C/C(=C\C(=O)N[C@H]1CCc2cccc3c2N(C1=O)[C@H](C(=O)N[C@@H](CCC(N)=O)[C@@H](C)OCc1ccc(CCCOCCOCCOCCOCCCc2ccc4c(c2)n(C)c(=O)n4C2CCC(=O)NC2=O)cc1)C3)c1ccc(C(F)(F)P(=O)(OCOC(=O)C(C)(C)C)OCOC(=O)C(C)(C)C)cc1` (stereo partly shown) [Compound I-60] and `C/C(=C\C(=O)N[C@H]1CCc2cccc3c2N(C1=O)[C@H](C(=O)N[C@@H](CCC(N)=O)[C@@H](C)OCc1ccc(CCCNC(=O)COCCCc2ccc4c(c2)n(C)c(=O)n4C2CCC(=O)NC2=O)cc1)C3)c1ccc(C(F)(F)P(=O)(OCOC(=O)C(C)(C)C)OCOC(=O)C(C)(C)C)cc1` (stereo partly shown) [Compound I-68] cannot be ordered by DC50: over 30 µM for the first, over 30 µM for the second.

`C/C(=C\C(=O)N[C@H]1CCc2cccc3c2N(C1=O)[C@H](C(=O)N[C@@H](CCC(N)=O)[C@@H](C)OCc1ccc(CCCCCC(=O)N[C@H](C(=O)N2C[C@H](O)C[C@H]2C(=O)NCc2ccc(-c4scnc4C)cc2)C(C)(C)C)cc1)C3)c1ccc(C(F)(F)P(=O)(OCOC(=O)C(C)(C)C)OCOC(=O)C(C)(C)C)cc1` [Compound I-71] and `Cc1ncsc1-c1ccc(CNC(=O)[C@@H]2C[C@@H](O)CN2C(=O)[C@@H](NC(=O)CCCC#Cc2ccc(CO[C@H](C)[C@H](CCC(N)=O)NC(=O)[C@@H]3Cc4cccc5c4N3C(=O)[C@@H](NC(=O)c3cc4cc(C(=O)P(=O)(O)O)ccc4[nH]3)CC5)cc2)C(C)(C)C)cc1` [Compound I-86] cannot be ordered by DC50: under 30 µM for the first, under 30 µM for the second.

Going from `C[C@@H](OCc1ccc(CCCCc2ccc3c(c2)n(C)c(=O)n3C2CCC(=O)NC2=O)cc1)[C@H](CCC(N)=O)NC(=O)[C@@H]1Cc2cccc3c2N1C(=O)[C@@H](NC(=O)c1cc2cc(C(=O)P(=O)(O)O)ccc2[nH]1)CC3` (stereo partly shown) [Compound I-84] to `Cc1ncsc1-c1ccc(C2(NC(=O)[C@@H]3C[C@@H](O)CN3C(=O)[C@@H](NC(=O)CCCCc3ccc(CO[C@H](C)[C@H](CCC(N)=O)NC(=O)[C@@H]4Cc5cccc6c5N4C(=O)[C@@H](NC(=O)c4cc5cc(C(=O)P(=O)(O)O)ccc5[nH]4)CC6)cc3)C(C)(C)C)CC2)cc1` [Compound I-90, 2-[[(2S,11S)-2-[[(3S,4R)-1-carbamoyl-4-[[4-(4-[[(2S)-1-[(2S,4R)-4-hydroxy-2-([1-[4-(4-methyl-1,3-thiazol-5-yl)phenyl]cyclopropyl]carbamoyl)pyrrolidin-1-yl]-3,3-dimethyl-1-oxobutan-2-yl]carbamoyl]butyl)phenyl]methoxy]pentan-3-yl]carbamoyl]-12-oxo-1-azatricyclo[6.4.1.0^[4,13]]trideca-4(13),5,7-trien-11-yl]carbamoyl]-1H-indole-5-carbonylphosphonic acid], the DC50 falls from over 30 µM to under 30 µM.

Compared with `Cc1ncsc1-c1ccc(CNC(=O)[C@@H]2C[C@@H](O)CN2C(=O)[C@@H](NC(=O)CCc2ccc3cc(CO[C@H](C)[C@H](CCC(N)=O)NC(=O)[C@@H]4Cc5cccc6c5N4C(=O)[C@@H](NC(=O)c4cc5cc(C(=O)P(=O)(O)O)ccc5[nH]4)CC6)ccc3c2)C(C)(C)C)cc1` [Compound I-87, diammonium 2-[[(2S,11S)-2-[[(3S,4R)-1-carbamoyl-4-[[6-(2-[[(2S)-1-[(2S,4R)-4-hydroxy-2-([[4-(4-methyl-1,3-thiazol-5-yl)phenyl]methyl]carbamoyl)pyrrolidin-1-yl]-3,3-dimethyl-1-oxobutan-2-yl]carbamoyl]ethyl)naphthalen-2-yl]methoxy]pentan-3-yl]carbamoyl]-12-oxo-1-azatricyclo[6.4.1.0^[4,13]]trideca-4(13),5,7-trien-11-yl]carbamoyl]-1H-indole-5-carbonylphosphonate], `Cn1c(=O)n(C2CCC(=O)NC2=O)c2cccc(CCCCC(=O)N3CC[C@H]4CC[C@@H](C(=O)N[C@@H](CCC(N)=O)C(=O)NC(c5ccccc5)c5ccccc5)N4C(=O)[C@@H](NC(=O)c4cc5cc(C(=O)P(=O)(O)O)ccc5[nH]4)C3)c21` (stereo partly drawn) [Compound I-88, 2-[[(5S,8S,10aR)-8-[[(1S)-3-carbamoyl-1-(diphenylmethylcarbamoyl)propyl]carbamoyl]-3-[5-[1-(2,6-dioxopiperidin-3-yl)-3-methyl-2-oxo-1,3-benzodiazol-4-yl]pentanoyl]-6-oxo-octahydropyrrolo[1,2-a][1,5]diazocin-5-yl]carbamoyl]-1H-indole-5-carbonylphosphonic acid] is higher in DC50: under 30 µM for the first, over 30 µM for the second.

`C/C(=C\C(=O)N[C@H]1CN(C(=O)CCCCCC#Cc2cccc3c2CN(C2CCC(=O)NC2=O)C3=O)CC[C@H]2CC[C@@H](C(=O)N[C@@H](CCC(N)=O)C(=O)NC(c3ccccc3)c3ccccc3)N2C1=O)c1ccc(CP(=O)(O)O)cc1` (stereo partly drawn) [Compound I-89, diammonium [4-[(1E)-1-[[(5S,8S,10aR)-8[[(1S)-3-carbamoyl-1-(diphenylmethylcarbamoyl)propyl]carbamoyl]-3-[8-[2-(2,6-dioxopiperidin-3-yl)-1-oxo-3H-isoindol-4-yl]oct-7-ynoyl]-6-oxo-octahydropyrrolo[1,2-a][1,5]diazocin-5-yl]carbamoyl]prop-1-en-2-yl]phenyl]methylphosphonate] was tested, and the DC50 was under 30 µM.
